Patent US11629201B2, “PSMA-binding agents and uses thereof” (ITM Isotope Technologies Munich SE, priority 2017, dated 2023)

Tested on: PC-3 PIP/flu tumor-bearing mice
Test: Biodistribution studies in PC-3 PIP/flu tumor-bearing mice
Conditions: for Tumor-to-blood / Tumor-to-kidney / Tumor-to-liver: PC-3 PIP tumor

With `Cc1ccc(CCCC(=O)NCCCCC(NC(=O)CN2CCN(CC(=O)O)CCN(CC(=O)O)CCN(CC(=O)O)CC2)C(=O)NCC2CCC(C(=O)NC(Cc3ccc4ccccc4c3)C(=O)NCCCCC(NC(=O)NC(CCC(=O)O)C(=O)O)C(=O)O)CC2)cc1` (centres unmarked) [44Sc-PSMA-ALB-06, metal not drawn] as the compound, how does the Tumor-to-blood (1 h p.i.) read?
Its Tumor-to-blood is 0.94 ± 0.11.

And the Tumor-to-kidney (1 h p.i.)?
Its Tumor-to-kidney is 0.77 ± 0.12.

And the Tumor-to-liver (1 h p.i.)?
Its Tumor-to-liver is 4.28 ± 0.52.

What about the Blood (4 h p.i.) of the same compound?
The Blood was 18.4 ± 1.00 % IA/g.

And the Bone (4 h p.i.)?
Its Bone is 2.50 ± 0.35 % IA/g.

And the Heart (4 h p.i.)?
The Heart was 6.48 ± 0.50 % IA/g.

And the Intestines (4 h p.i.)?
Its Intestines is 2.50 ± 0.13 % IA/g.

What about the Kidneys (4 h p.i.) of the same compound?
The Kidneys was 28.8 ± 2.46 % IA/g.

And the Muscle (4 h p.i.)?
Its Muscle is 2.24 ± 0.10 % IA/g.

And the “PC-3 PIP Tumor” value (4 h p.i.)?
The value was 61.7 ± 7.32 % IA/g.

What about the “PC-3 flu Tumor” value (4 h p.i.) of the same compound?
Its value is 4.37 ± 0.43 % IA/g.

What about the Salivary glands (4 h p.i.) of the same compound?
The Salivary glands was 4.55 ± 0.41 % IA/g.

And the Spleen (4 h p.i.)?
Its Spleen is 4.10 ± 0.54 % IA/g.

What about the Tumor-to-blood (4 h p.i.) of the same compound?
Its Tumor-to-blood is 3.35 ± 0.20.

And the Tumor-to-kidney (4 h p.i.)?
The Tumor-to-kidney was 2.14 ± 0.15.

What about the Tumor-to-liver (4 h p.i.) of the same compound?
The Tumor-to-liver was 17.93 ± 3.32.

And the Blood (6 h p.i.)?
The Blood was 15.6 ± 0.75 % IA/g.

And the Bone (6 h p.i.)?
Its Bone is 2.54 ± 0.27 % IA/g.

And the Intestines (6 h p.i.)?
The Intestines was 2.07 ± 0.34 % IA/g.

What about the Kidneys (6 h p.i.) of the same compound?
The Kidneys was 21.7 ± 0.42 % IA/g.

And the Liver (6 h p.i.)?
The Liver was 3.67 ± 0.68 % IA/g.

What about the Lung (6 h p.i.) of the same compound?
The Lung was 9.44 ± 0.86 % IA/g.

What about the “PC-3 PIP Tumor” value (6 h p.i.) of the same compound?
The value was 72.9 ± 11.1 % IA/g.

And the “PC-3 flu Tumor” value (6 h p.i.)?
Its value is 3.87 ± 0.45 % IA/g.

What about the Salivary gland (6 h p.i.) of the same compound?
The Salivary gland was 4.03 ± 0.22 % IA/g.

What about the Spleen (6 h p.i.) of the same compound?
The Spleen was 3.67 ± 0.37 % IA/g.

And the Tumor-to-blood (6 h p.i.)?
The Tumor-to-blood was 4.69 ± 0.67.

What about the Tumor-to-kidney (6 h p.i.) of the same compound?
The Tumor-to-kidney was 3.35 ± 0.42.

And the Tumor-to-liver (6 h p.i.)?
The Tumor-to-liver was 20.2 ± 3.43.
